Earlier results, collected in patent US20200392379A1, “TRANSFER FILM, METHOD FOR MANUFACTURING LAMINATE, LAMINATE, CAPACITIVE INPUT DEVICE, AND IMAGE DISPLAY DEVICE” (FUJIFILM Corporation, priority 2018, published 2020).

Row | pKa of conjugate acid | Compound
1 | 1.30 | Sc1nc[nH]n1 [3-Mercapto-1,2,4-triazole]
2 | 8.15 | Cc1ncc[nH]1 [2-Methylimidazole]
3 | 0.34 | Nc1cnns1 [5-Amino-1,2,3-thiadiazole]
4 | 5.67 | c1ccc2[nH]cnc2c1 [Benzimidazole]
5 | 1.17 | c1ccc2[nH]nnc2c1 [1,2,3-Benzotriazole]
6 | −2.88 | c1ccc(-c2nnn[nH]2)cc1 [5-Phenyl-1H-tetrazole]
7 | 2.99 | CSc1nc(N)n[nH]1 [3-Amino-5-methylthio-1H-1,2,4-triazole]
8 | 3.02 | Nc1ccc2[nH]c(S)nc2c1 [5-Amino-2-mercaptobenzimidazole]
9 | −1.09 | Sc1nncs1 [2-Mercapto-1,3,4-thiadiazole]

The next lines start with the compound.

Row | Compound | pKa of conjugate acid
10 | CSc1nnc(S)s1 [2-Mercapto-5-methylthio-1,3,4-thiadiazole] | −1.32
11 | Nc1nnn[nH]1 [5-Amino-1H-tetrazole] | 1.29
12 | Cn1nnnc1S [1-Methyl-5-mercaptotetrazole] | −2.98
13 | O=C(O)CC(Cn1nnc2ccccc21)C(=O)O (centres unmarked) [1-(2,3-Dicarboxypropyl)benzotriazole] | 1.21
14 | CCCCC(CC)CN(CC(CC)CCCC)Cn1nnc2ccccc21 (centres unmarked) [1-[N,N-bis(2-ethylhexyl)aminomethyl]benzotriazole] | 6.68
15 | Cc1cc(Cn2nnc3ccccc32)c(O)c(Cn2nnc3ccccc32)c1 [2,6-Bis[(1H-benzotriazol-1-yl)methyl]-4-methylphenol] | 1.49
16 | CSc1nnc(N)s1 [2-Amino-5-methylthio-1,3,4-thiadiazole] | 2.12
17 | Sc1nc2ccccc2[nH]1 [2-Mercaptobenzimidazole] | 2.38
18 | Sc1nnc(S)s1 [1,3,4-Thiadiazole-2,5-dithiol] | −2.11
19 | Sc1nnnn1-c1ccccc1 [5-Mercapto-1-phenyl-1H-tetrazole] | −4.56
20 | O=C(O)CC(C(=O)O)n1nnc2ccccc21 (centres unmarked) [1-(1′,2′-Dicarboxyethyl)benzotriazole] | 0.09
